Laboratory results reported in patent publication US20090203685A1, “ANTI-PROLIFERATIVE COMPOUNDS FROM A 3-ARYL-COUMARINE OR 3-ARYL-QUINOLIN-2-ONE AND USES THEREOF” (EOS (ETHICAL ONCOLOGY SCIENCE) S.P.A., priority 2006, published 2009).

What was measured:
[1] = system: human lung cancer NCI-H460 cells (NSCLC); assay: Inhibition of tumor growth in vivo, NCI-H460 xenograft; set-up: species or system Swiss nude mice
Method: FIG. 2: Inhibition of tumor growth in vivo.
This graph represents the growth of tumor size (by reference to the initial size of the tumor) grafted to mice receiving different treatments during 15 days.
Rhombus: evolution of the growth of the tumor measured in mice receiving the vehicle (without active ingredient) intra-peritoneally (2QD)
Triangle: evolution of the growth of the tumor measured in mice receiving the compound (01) intra-peritoneally at a dosage of 18 mg/kg (2QD).
Circle: evolution of the growth of the tumor measured in mice receiving taxol intra-peritoneally at 8 mg/kg (Q3D×5; d1; d4; d7; d10; d13).
Cross: evolution of the growth of the tumor measured in mice receiving a combination of compound (01) at a dosage of 18 mg/kg 2QD and taxol at a dosage of 8 mg/kg Q3D×5 intra-peritoneally.
For this experiment, Swiss nude mice received a subcutaneous xenograft of 5×10^6 human lung cancer NCI-H460 cells (NSCLC). The percentage of growth of the tumor size versus tumor size at the beginning of treatment is plotted during 15 days for mice receiving four different treatments (12 mice per group of treatment).
The first treatment corresponds to a control. The mice were given the vehicule intra-peritoneally, 2QD.
Composition of the vehicule: 10% DMSO; 10% PEG-400; 30% (EtOH/Cremophor (1/2)); 50% sterile water.
The second treatment corresponds to the administration of a compound of the invention, compound (01), at a dosage of 18 mg/kg 2QD.
The third treatment corresponds to the administration of Taxol at a dosage of 8 mg/kg Q3D×5; d1; d4; d7; d10; d13.
The fourth treatment corresponds to the administration of a combination of compound (01) at a dosage of 18 mg/kg 2QD and of Taxol at a dosage of 8 mg/kg Q3D×5.

[2] = target: T1, interaction between 6×His-Bcl-xL and GST-BF8 (Homo sapiens, UniProt Q07817); assay: Pull down assay, Bcl-xL/BF8 in vitro interaction; type: binding; conditions: 50 μM, 5% DMSO; Western blot
T1 construct: made in house; host or cells: E. coli
Method: FIG. 3: Inhibition of the interaction between Bcl-xL and BF8, a peptide aptamer that targets the hydrophobic groove of BCL-2 family members. […]
C+: 6×His-Bcl-xL captured by GST-BF8, in presence of 5% DMSO. (02): 6×His-Bcl-xL captured by GST-BF8, in presence of 50 μM of compound 02 (in 5% DMSO). (01): 6×His-Bcl-xL captured by GST-BF8, in presence of 50 μM of compound 01 (in 5% DMSO).
A peptide aptamer (dubbed BF8) has been selected against the anti-apoptotic protein Bfl1, member of the BCL-2 family. […] Two lines of evidence indicate that BF8 binds the hydrophobic groove of anti-apoptotic BCL-2-like proteins. First, the amino-acid sequence of its variable region bears similarities with the sequence of the BH3 domains of pro-apoptotic members of the BCL-2 family (such as Bak or Bax), known to bind the anti-apoptotic proteins via this hydrophobic groove. Second, BF8 no longer binds a mutated variant of Bfl-1 that bears an amino-acid substitution within the said hydrophobic groove.
A Bcl-xL/BF8 in vitro interaction assay was developed to examine the capacity of the compounds of the invention to disrupt this interaction by competition with the peptide aptamer. 6×His-Bcl-xL and GST-BF8 recombinant fusion proteins were expressed in E. coli and purified using affinity chromatography. […]

[3] = system: U937; assay: Cell cycle analysis, U937; type: cell-based, human; conditions: 500 nM
Method: The cells are pelleted by gentle centrifugation 1200 rpm/5 min/4° C., then the supernatant is discarded and the cells are fixed with 1 mL of PBS/Ethanol 70% overnight at −20° C. The tubes are then centrifuged during 5 minutes at 1200 rpm and the supernatant is removed. The pellet is then re-suspended in 450 μL of PBS before 50 μL of RNAse (1 mg/mL) and 5 μL of propidium iodide (2 mg/mL) are added. Each tube is left 30 minutes at 37° C. and immediately analysed by flow cytometry after incubation.
A biparametric dot plot representation FL3 peak vs FL3 integer is plotted and the cells located on the diagonal are gated and analysed on a histogram representing the number of cells as a function of the FL3 peak.
To assess the relative position of cursors defining relative proportion of cells in subG1, G1, S or G2 phase of the cell cycle, G1 and G2 peaks are to be defined first:
The G1 peak is defined as the major peak in absence of treatment (generally X=200);
The G2 peak is centered on the value which is twice the value of the G1 peak (generally X=400).
Cells in subG1 phase are plotted in the part of the histogram preceding the G1 peak (generally X<200) and cells in S phase are enclosed in the area between the G1 and G2 peaks.
On this graphic, subG1, G1, S and G2/M phases of the cell cycle can thus be defined.
Viability and cell cycle profile, tested with compound (01), at 500 nM: […]

T1 sequence (Q07817 whole entry): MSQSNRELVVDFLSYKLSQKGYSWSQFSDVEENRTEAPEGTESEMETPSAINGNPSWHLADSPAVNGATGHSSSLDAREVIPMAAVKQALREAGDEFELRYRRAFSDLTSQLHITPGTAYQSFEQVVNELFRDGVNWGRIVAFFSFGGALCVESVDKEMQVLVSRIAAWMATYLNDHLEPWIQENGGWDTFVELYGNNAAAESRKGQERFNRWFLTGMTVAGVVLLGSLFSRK

Inhibition of the in vitro interaction between 6×His-Bcl-xL and GST-BF8 [2]: inhibit
Compound: COc1cc(NC(=S)NC(=O)/C=C/c2ccco2)ccc1-c1cc2ccccc2oc1=O [Compound 01, (2E)-3-(2-furyl)-N-({[3-methoxy-4-(2-oxo-2H-chromen-3-yl)phenyl]amino}carbonothioyl)acrylamide]
Growth of lung tumor xenograft ([1]; 18 mg/kg 2QD intra-peritoneally, 15 days): inhibits the growth
Dose dependence of the tumor growth inhibition ([1]; NCI-H460 xenograft): dose-dependent
Efficacy in reducing the tumour growth when combined with taxol ([1]; compound (01) 18 mg/kg 2QD plus taxol 8 mg/kg Q3D×5, intra-peritoneally): enhanced
Cell cycle profile - 72 h [3]: Strong sub-G1
